Assay results: paper PMC10644720 (Frontiers in Pharmacology, 2023)

Experiments:
human washed platelets [1] = assay: Platelet superoxide anion and H2O2 release (DHE, Amplex Red); type: cell-based; conditions: convulxin 5 ng/mL; luteolin 25 μM
Procedure: A ROS probe via a fluorescent enzyme marker was added. O2 ^− and H2O2 were measured using 2 μM Amplex Red (Cat No. ST010; Beyotime Institute of Biotechnology, Shanghai, China) or 2 μM Dihydroethidium (DHE, Cat No. S0063; Beyotime Institute of Biotechnology, Shanghai, China). O2 ^− and H2O2 were analyzed using a Fluoroskan Ascent fluorometer (Thermo Fisher, Waltham, Massachusetts, United States).

human washed platelets [2] = assay: Platelet-collagen static adhesion assay; type: cell-based
Procedure: As previously reported ([Banfi et al., 2022]), 50 μg/mL collagen and 25 μg/mL fibrinogen (Cat No. F3879-100 MG; Sigma-Aldrich, St. Louis, MO, United States) were used to coat coverslips overnight at 4°C. […] The coated slides were washed three times with PBS and blocked with 1% BSA (prepared in PBS) for 1 h at room temperature. The blocking solution was removed, and WPs were added for adhesion experiments. The WPs were allowed to adhere to the slides for 15–60 min at 37°C. The unadhered platelets were removed by PBS. The platelets were fixed with 2% paraformaldehyde solution for 15 min, broken using 1% Triton-100 for 5 min, and stained with phalloidin (1:1,000, Cat No.17466-45-4, Sigma-Aldrich) for 30 min away from light at room temperature. The platelet morphology was observed using an Olympus ix73 microscope (Olympus Corp., Shinjuku, Japan) and photographed. The number of platelet adhesions and spreading area were analyzed and calculated using ImageJ software.

pulmonary thrombosis = assay: Collagen-epinephrine-induced acute pulmonary embolism model and plasma oxidative markers; type: in vivo, C57BL/6 mice; conditions: luteolin 35 μM/kg
Procedure: The acute pulmonary embolism model in mice was similar to the previously reported literature with slight modifications ([Pan et al., 2021]). […] after a retro-orbital sinus injection of collagen (100 μg/kg)-epinephrine (300 μg/kg), the mice were anesthetized by pentobarbital (45 mg/kg, i.p.). Whole blood obtained from the eyes was anticoagulated with EDTA·2Na. Whole blood was centrifuged at 3,000 rpm for 10 min to get plasma. Measurement of MDA and SOD in plasma followed the manufacturer’s protocols. Mice were sacrificed by cervical dislocation. The lung tissue was taken and fixed in 4% paraformaldehyde overnight. Lung and sternum tissues were fixed in 4% paraformaldehyde, embedded in paraffin, and sectioned into 5-μm sections. After dewaxing and washing, the slices were incubated overnight at 4°C for immunostaining with anti-mouse CD41 antibody (Cat No. GTX113758, GeneTex Inc., Irvine, CA, United States) 0.63 μg/mL or with anti-mouse CD42b antibody (Cat No. 12860-1-AP; Proteintech Group Inc., Chicago, IL, United States) 1 μg/mL or an equivalent concentration of polyclonal non-immune IgG (Cat No. GTX213110-01; GeneTex) as control. The sections were washed three times and incubated for 50 min at room temperature with secondary antibodies. The nuclei were counterstained using hematoxylin. The tissues were observed using 3,3′-Diaminobenzidine tetrahydrochloride.

[3] = Luteolin in vivo toxicity experiments (15 days i.p.); parameters: species or system C57BL/6 mice
Procedure: Blood was collected from the orbits every 3 days for blood tests. On the second day, after 15 days of intraperitoneal administration, pentobarbital (45 mg/kg) was injected intraperitoneally for anesthesia, and blood was sampled from the eyes. Whole blood was left for 30–60 min, and the supernatant was centrifuged at 3,000 rpm for serum liver and kidney function testing using Unicel DxC600 (Beckman Coulter, Inc. Brea, California, US). Finally, the mice were sacrificed by cervical dislocation, and the sternum was fixed in 4% paraformaldehyde. […]

coagulation factor X = test system: coagulation factor X; parameters: method as in Choi et al. (2015); conditions: ref Choi et al. (2015); cited from earlier work
[4] = luteolin 35 μM/kg i.p. daily for 15 days
[5] = luteolin 35 μM/kg i.p. daily, 15 days, mean ± SEM

O=c1cc(-c2ccc(O)c(O)c2)oc2cc(O)cc(O)c12 [Luteolin]
platelet hydrogen peroxide release (human washed platelets [1]): inhibited | platelet superoxide anion release (human washed platelets [1]): inhibited | adherent area vs vehicle (human washed platelets [2]; luteolin 25 µM, at 15, 30, 45, and 60 min): decreased | surface per platelet vs vehicle (human washed platelets [2]; luteolin 25 µM, at 15, 45, and 60 min): decreased | surface per platelet vs vehicle (human washed platelets [2]; luteolin 2.5 and 10 µM, at 15 and 45 min): decreased | adherent area vs vehicle (human washed platelets [2]; luteolin 2.5 and 10 µM, at 60 min): slightly decreased | platelet adherence (number of adherent platelets) on collagen vs vehicle (human washed platelets [2]; luteolin 10 and 25 µM, at 45 and 60 min): significantly decreased | area and size of thrombus formation in lungs (pulmonary thrombosis; 30 min before collagen-epinephrine): significantly attenuated | MDA levels in plasma (pulmonary thrombosis; mice with pulmonary embolism): significantly decreased | SOD activity in plasma (pulmonary thrombosis; mice with pulmonary embolism): increased | liver and kidney functions ([3]; luteolin 35 μM/kg for 15 days): normal | mean platelet volume vs DMSO [3, 4]: no significant differences | megakaryocyte counts in bone marrow vs DMSO [3, 4]: no significant differences | peripheral platelet count vs DMSO [3, 4]: no significant differences | Alanine aminotransferase [3, 5]: 66.21 ± 5.35 U/L | Alkaline phosphatase [3, 5]: 75.00 ± 7.34 U/L | Aspartate aminotransferase [3, 5]: 147.20 ± 7.03 U/L | Blood urea nitrogen [3, 5]: 10.14 ± 0.40 mmol/L | Creatinine [3, 5]: 17.22 ± 2.61 µmol/L | Granulocyte % [3, 5]: 25.22 ± 0.74% | Granulocytes [3, 5]: 0.36 ± 0.03 ×10^9/L | Lymphocyte % [3, 5]: 57.39 ± 1.59% | Lymphocytes [3, 5]: 0.80 ± 0.04 ×10^9/L | Monocyte % [3, 5]: 17.39 ± 1.56% | Monocytes [3, 5]: 0.25 ± 0.04 ×10^9/L | Red blood cells [3, 5]: 0.65 ± 0.03 ×10^12/L | Total bilirubin [3, 5]: 5.24 ± 0.49 µmol/L | White blood cells [3, 5]: 1.35 ± 0.10 ×10^9/L | γ-glutamyl transferase [3, 5]: 6.20 ± 1.24 U/L | toxic effects in C57BL/6 mice ([3]; mouse, in vivo): no significant toxic effects | coagulation factor X activity (coagulation factor X): effectively inhibits
